# Assay results published in patent US20250188030A1, “Biphenyl and Phenylpyridine Compounds” (Pfizer Inc., priority 2023, published 2025).
# Like-named read-outs stand apart in the source and are kept apart here.
# Key:
# H3K9AC (HT1080 cells) = assay: H3K9AC Sandwich ELISA Assay in HT1080 cells (KAT2A primary cell-based screening assay); parameters: species or system Human
# Summary of the method: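 HT1080 fibrosarcoma cells seeded 16 h, then treated 24 h at 37 °C with 10-point 1:3 compound dilutions (top 10 µM final, 0.1% DMSO). Acid lysates neutralized with butyrate/PMSF; H3K9ac measured by total-H3-capture sandwich ELISA with luminescent HRP readout, IC50 by four-parameter fit.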
# MM.1S cells = assay: MM1.S 10 Day Proliferation Assay (CellTiter-Glo); assay type: cell-based, Human
# Summary of the method: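 MM.1S cells, 500/well in ultra-low-attachment plates, were pre-incubated 16 h, then exposed to a 10-point 1:3 dilution series (top 10 μM final, 0.1% DMSO) for 10 days at 37 °C, with compound-containing medium refreshed at day 5. Viability was read by CellTiter-Glo luminescence; IC50 came from four-parameter fit.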
# KAT2A = KAT2A (Homo sapiens (Human), UniProt Q92830); assay: KAT2A acetyltransferase biochemical assay (RapidFire mass spectrometry, AcCoA to CoA)
# [1] = read-out: KAT2A Ki at 1 μM AcCoA, 5 μM H3 1-21 peptide, 0.5 nM KAT2A, 90-minute reaction
# [2] = Homo sapiens, HT-1080, H3K9AC sandwich ELISA
# [3] = KAT2A Ki at 1 μM AcCoA, 5 μM H3 1-21 peptide, 0.5 nM KAT2A, 90-minute reaction
# Sequence of KAT2A (Q92830 whole entry): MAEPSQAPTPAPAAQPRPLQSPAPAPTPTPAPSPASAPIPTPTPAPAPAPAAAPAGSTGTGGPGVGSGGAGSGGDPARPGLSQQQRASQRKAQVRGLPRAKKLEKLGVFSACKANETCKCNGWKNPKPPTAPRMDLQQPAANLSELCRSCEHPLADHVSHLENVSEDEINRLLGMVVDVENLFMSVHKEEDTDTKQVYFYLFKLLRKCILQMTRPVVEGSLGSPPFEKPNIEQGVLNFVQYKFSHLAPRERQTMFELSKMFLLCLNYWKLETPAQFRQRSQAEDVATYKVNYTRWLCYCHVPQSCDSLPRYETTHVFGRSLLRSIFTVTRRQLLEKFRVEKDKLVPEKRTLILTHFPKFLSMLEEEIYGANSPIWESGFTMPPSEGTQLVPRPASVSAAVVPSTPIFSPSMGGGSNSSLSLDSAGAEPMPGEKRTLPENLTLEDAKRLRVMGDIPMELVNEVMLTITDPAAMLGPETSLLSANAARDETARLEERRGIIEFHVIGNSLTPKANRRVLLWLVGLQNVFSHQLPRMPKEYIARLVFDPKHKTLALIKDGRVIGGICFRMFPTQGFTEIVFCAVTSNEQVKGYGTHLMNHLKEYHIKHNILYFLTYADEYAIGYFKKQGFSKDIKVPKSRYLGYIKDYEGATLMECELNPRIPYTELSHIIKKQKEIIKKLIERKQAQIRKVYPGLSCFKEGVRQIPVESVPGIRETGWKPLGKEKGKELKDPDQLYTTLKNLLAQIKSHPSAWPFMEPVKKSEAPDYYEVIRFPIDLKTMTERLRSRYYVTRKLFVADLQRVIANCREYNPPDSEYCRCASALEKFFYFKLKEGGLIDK
IC50 (H3K9AC (HT1080 cells); H3K9AC sandwich ELISA),"IC50 (MM.1S cells; Homo sapiens, MM1.S, 240 h)",Ki (KAT2A; [1]),IC50 (H3K9AC (HT1080 cells); [2]),IC50 (MM.1S cells),Ki (KAT2A; [3]),SMILES
5.8 nM,31.1 nM,0.03 nM,–,–,–,"CC(C)S(=O)(=O)NC(=O)Cc1cccc(O[C@@H]2CC[C@@H](NC(=O)[C@@]3(F)CNC4(CCC4)C3)C2)c1-c1cccc(F)c1C1CCC1 (atropisomer, axis not shown) [Example I16, (7S)-N-[(1R,3R)-3-({(1ψ)-2′-cyclobutyl-3′-fluoro-6-[2-oxo-2-(propane-2-sulfonamido)ethyl][1,1′-biphenyl]-2-yl}oxy)cyclopentyl]-7-fluoro-5-azaspiro[3.4]octane-7-carboxamide]"
–,126 nM,26.4 nM,21.3 nM,–,–,"CCc1c(F)cccc1-c1cc(C(C)(C)C(=O)NS(C)(=O)=O)ccc1O[C@@H]1CC[C@@H](NC(=O)[C@@H]2CC(C)(C)CN2C)C1 [Example E10, N-{(1R,3R)-3-[(2′-ethyl-3′-fluoro-5-{1-[(methanesulfonyl)amino]-2-methyl-1-oxopropan-2-yl}[1,1′-biphenyl]-2-yl)oxy]cyclopentyl}-1,4,4-trimethyl-L-prolinamide]"
–,56.9 nM,–,9.38 nM,–,1.68 nM,"CN1CC(C)(C)C[C@H]1C(=O)N[C@H]1C[C@H](COc2ccc(C(C)(C)C(=O)NS(C)(=O)=O)cc2-c2cccc(F)c2C2CCC2)C1 [Example G2, N-[(1r,3S)-3-{[(2′-cyclobutyl-3′-fluoro-5-{1-[(methanesulfonyl)amino]-2-methyl-1-oxopropan-2-yl}[1,1′-biphenyl]-2-yl)oxy]methyl}cyclobutyl]-1,4,4-trimethyl-L-prolinamide]"
–,238 nM,25 nM,24.5 nM,–,–,"CN1CC(C)(C)C[C@H]1C(=O)N[C@@H]1CC[C@@H](Oc2cccc(C(=O)NS(=O)(=O)N3CCC3)c2-c2cccc(F)c2C2CCC2)C1 (atropisomer, axis not shown) [Example I13, N-[(1R,3R)-3-({(1ψ)-6-[(azetidine-1-sulfonyl)carbamoyl]-2′-cyclobutyl-3′-fluoro[1,1′-biphenyl]-2-yl}oxy)cyclopentyl]-1,4,4-trimethyl-L-prolinamide]"
–,36.2 nM,0.17 nM,9.5 nM,–,–,"CCS(=O)(=O)NC(=O)C(C)(C)c1ccc(OC[C@H]2C[C@H](NC(=O)[C@@]3(F)CNC4(CCC4)C3)C2)c(-c2cccc(F)c2C2CCC2)c1 (single isomer, unassigned) [Example G5, (7Rξ)-N-{(1r,3r)-3-[({2′-cyclobutyl-5-[1-(ethanesulfonamido)-2-methyl-1-oxopropan-2-yl]-3′-fluoro[1,1′-biphenyl]-2-yl}oxy)methyl]cyclobutyl}-7-fluoro-5-azaspiro[3.4]octane-7-carboxamide]"
4.97 nM,34.2 nM,0.08 nM,–,–,–,"CC(C)n1cc(-c2ccc(O[C@@H]3CC[C@@H](NC(=O)[C@@]4(F)CNC5(CCC5)C4)C3)c(-c3cccc(F)c3C3CCC3)c2)c(C(=O)O)n1 (single isomer, unassigned) [Example J16]"
–,625 nM,–,71.2 nM,–,9.11 nM,"CN1CC(C)(C)C[C@H]1C(=O)N[C@H]1C[C@H](COc2ccc(C(C)(C)C(=O)O)cc2-c2cccc(F)c2C2CCC2)C1 [Example F2, 2-[2′-cyclobutyl-3′-fluoro-6-({(1S,3r)-3-[(1,4,4-trimethyl-L-prolyl)amino]cyclobutyl}methoxy)[1,1′-biphenyl]-3-yl]-2-methylpropanoic acid]"
–,73.4 nM,1.7 nM,24.2 nM,–,–,"CN1CC(C)(C)C[C@H]1C(=O)N[C@@H]1CC[C@@H](Oc2ccc(C(C)(C)C(=O)NS(C)(=O)=O)cc2-c2ccc(F)c(F)c2C2CCC2)C1 [Example E11, N-{(1R,3R)-3-[(2′-cyclobutyl-3′,4′-difluoro-5-{1-[(methanesulfonyl)amino]-2-methyl-1-oxopropan-2-yl}[1,1′-biphenyl]-2-yl)oxy]cyclopentyl}-1,4,4-trimethyl-L-prolinamide]"
–,419 nM,4.05 nM,52.8 nM,–,–,"CN1CC(C)(C)C[C@H]1C(=O)N[C@@H]1CC[C@@H](Oc2ccc(C(C)(C)C(=O)O)cc2-c2cccc(F)c2C2CCC2)C1 [Example D1, 2-[2′-cyclobutyl-3′-fluoro-6-({(1R,3R)-3-[(1,4,4-trimethyl-L-prolyl)amino]cyclopentyl}oxy)[1,1′-biphenyl]-3-yl]-2-methylpropanoic acid]"
–,69.3 nM,33.9 nM,18.1 nM,–,–,"CCN(C)S(=O)(=O)NC(=O)c1cccc(O[C@@H]2CC[C@@H](NC(=O)[C@@H]3CC(C)(C)CN3C)C2)c1-c1cccc(F)c1C1CCC1 (atropisomer, axis not shown) [Example I14, N-[(1R,3R)-3-{[(1ψ)-2′-cyclobutyl-6-{[ethyl(methyl)sulfamoyl]carbamoyl}-3′-fluoro[1,1′-biphenyl]-2-yl]oxy}cyclopentyl]-1,4,4-trimethyl-L-prolinamide]"

# Continued, molecule first:
SMILES,IC50 (H3K9AC (HT1080 cells); H3K9AC sandwich ELISA),"IC50 (MM.1S cells; Homo sapiens, MM1.S, 240 h)",Ki (KAT2A; [1]),IC50 (H3K9AC (HT1080 cells); [2]),IC50 (MM.1S cells),Ki (KAT2A; [3])
"CC(C)c1ccccc1-c1cc(CC(=O)NS(=O)(=O)C2(C)CC2)ccc1O[C@@H]1CC[C@@H](NC(=O)[C@@]2(F)CNC3(CCCC3)C2)C1 (single isomer, unassigned) [Example C61]",–,0.7 nM,0.07 nM,0.2 nM,–,–
"CCc1c(F)cccc1-c1cc(C(=O)O)ccc1O[C@@H]1CC[C@@H](NC(=O)[C@@]2(F)CNC3(CCCC3)C2)C1 (single isomer, unassigned) [Example A43]",> 1000 nM,–,> 99.9 nM,–,> 1000 nM,–
"CCc1c(F)cccc1-c1cc(CC(=O)NS(=O)(=O)C(C)C)ccc1O[C@@H]1CC[C@@H](NC(=O)[C@@]2(F)CNC3(CCC3)C2)C1 [Example C58, (7S)-N-[(1R,3R)-3-({2′-ethyl-3′-fluoro-5-[2-oxo-2-(propane-2-sulfonamido)ethyl][1,1′-biphenyl]-2-yl}oxy)cyclopentyl]-7-fluoro-5-azaspiro[3.4]octane-7-carboxamide]",–,8.1 nM,0.11 nM,3.4 nM,–,–
"CC[C@](C)(C(=O)O)c1ccc(O[C@@H]2CC[C@@H](NC(=O)[C@]3(F)CNC4(CCC4)C3)C2)c(-c2cccc(F)c2C2CCC2)c1 (single isomer, unassigned) [Example A12]",28.8 nM,–,1.78 nM,–,368 nM,–
"CCc1ccccc1-c1cc(CC(=O)NS(=O)(=O)C2(C)CC2)ccc1O[C@@H]1CC[C@@H](NC(=O)[C@@]2(F)CNC3(CCC3)C2)C1 [Example C51, (7S)-N-[(1R,3R)-3-({2′-ethyl-5-[2-(1-methylcyclopropane-1-sulfonamido)-2-oxoethyl][1,1′-biphenyl]-2-yl}oxy)cyclopentyl]-7-fluoro-5-azaspiro[3.4]octane-7-carboxamide]",–,4 nM,0.4 nM,3 nM,–,–
"CCc1c(F)cccc1-c1cc(CC(=O)NS(=O)(=O)C2(C)CC2)ccc1O[C@@H]1CC[C@@H](NC(=O)[C@@]2(F)CNC3(CCCC3)C2)C1 (single isomer, unassigned) [Example C50]",–,1.4 nM,0.19 nM,0.6 nM,–,–
"C[C@H](C(=O)O)c1ccc(O[C@@H]2CC[C@@H](NC(=O)[C@@]3(F)CNC4(CCC4)C3)C2)c(-c2cccc(F)c2C2CCC2)c1 (single isomer, unassigned) [Example A19]",–,–,2.4 nM,10 nM,431 nM,–
"O=C(O)c1ccc(O[C@@H]2CC[C@@H](NC(=O)[C@@]3(F)CNC4(CCCC4)C3)C2)c(-c2cccc(F)c2C2CCC2)c1 (single isomer, unassigned) [Example A36]",0.7 nM,3.5 nM,0.1 nM,–,–,–
"CC(C)c1ccccc1-c1cc(C(=O)O)ccc1O[C@@H]1CC[C@@H](NC(=O)[C@@]2(F)CNC3(CCCC3)C2)C1 (single isomer, unassigned) [Example A40]",> 1000 nM,–,> 99.9 nM,–,> 1000 nM,–
"CC(C)(C(=O)NS(=O)(=O)N1CC(F)C1)c1ccc(O[C@@H]2CC[C@@H](NC(=O)[C@@]3(F)CNC4(CCC4)C3)C2)c(-c2cccc(F)c2C2CCC2)c1 (single isomer, unassigned) [Example B5]",–,13.3 nM,0.09 nM,9.93 nM,–,–
"CN(C)S(=O)(=O)NC(=O)C(C)(C)c1ccc(O[C@@H]2CC[C@@H](NC(=O)[C@@]3(F)CNC4(CCC4)C3)C2)c(-c2cccc(F)c2C2CCC2)c1 [Example C2, (7S)-N-{(1R,3R)-3-[(2′-cyclobutyl-5-{1-[(dimethylsulfamoyl)amino]-2-methyl-1-oxopropan-2-yl}-3′-fluorobiphenyl-2-yl)oxy]cyclopentyl}-7-fluoro-5-azaspiro[3.4]octane-7-carboxamide]",–,5.37 nM,–,3.56 nM,–,0.05 nM
"CC1(C)C[C@@](F)(C(=O)N[C@@H]2CC[C@@H](Oc3ccc(C(=O)O)cc3-c3cccc(F)c3C3CCC3)C2)CN1 (single isomer, unassigned) [Example A14]",4.88 nM,157 nM,1.32 nM,–,–,–
"CC1(C)CNCC(F)(C(=O)N[C@@H]2CC[C@@H](Oc3ccc(C(=O)O)cc3-c3cccc(F)c3C3CCC3)C2)C1 (single isomer, unassigned) [Example A38]",4 nM,18.3 nM,0.02 nM,–,–,–
"CC(C)S(=O)(=O)NC(=O)C(C)(C)c1ccc(O[C@@H]2CC[C@@H](NC(=O)[C@@]3(F)CNCC(C)(C)C3)C2)c(-c2cccc(F)c2C2CCC2)c1 (single isomer, unassigned) [Example B30]",–,4.2 nM,0.09 nM,1.7 nM,–,–
